The values that follow come from PubChem BioAssay AID1259407 (Chemical Carcinogenesis Research Information System (CCRIS), 2018).

Calls of active or inactive are those of the source. The rule behind the calls is not given here.

In the data set the test system is CCRIS mutagenicity, Ames/micronucleus/aberration tests. The experiment in a line: CCRIS mutagenicity studies.
Where [1] appears, read: Test System: AMES SALMONELLA TYPHIMURIUM, Strain/Indicator: TA98, Metabolic Activation: NONE, Method: PREINCUBATION
Setting [2] is: Test System: AMES SALMONELLA TYPHIMURIUM, Strain/Indicator: TA100, Metabolic Activation: NONE, Method: PREINCUBATION
Where [3] appears, read: Test System: AMES SALMONELLA TYPHIMURIUM, Strain/Indicator: TA1535, Metabolic Activation: NONE, Method: PREINCUBATION
Where [4] appears, read: Test System: AMES SALMONELLA TYPHIMURIUM, Strain/Indicator: TA1537, Metabolic Activation: NONE, Method: PREINCUBATION
[5] abbreviates: Test System: MOUSE LYMPHOMA, Strain/Indicator: L5178Y (TK+/TK-), Metabolic Activation: NONE, Method: SUSPENSION/PLATE.

As for `Cc1ccc(N=C=O)cc1N=C=O`, the mutagenic call (End Point: IN VITRO CHROMOSOMAL ABERRATIONS, Test System: CHL CELLS, Metabolic Activation: RAT, LIVER, S-9, SODIUM PHENOBARBITAL AND 5,6-BENZOFLAVONE) was “inactive; negative; authors report equivocal results for ploidy changes at the highest dos”; the mutagenic call (End Point: IN VITRO CHROMOSOMAL ABERRATIONS, Test System: CHO CELLS, Metabolic Activation: RAT, LIVER, S-9, AROCLOR 1254) is “inactive; negative; precipitation occurred at 500 and 750 ug/ml”; the mutagenic call (Test System: AMES SALMONELLA TYPHIMURIUM, Strain/Indicator: TA97, Metabolic Activation: HAMSTER, LIVER, S-9, AROCLOR 1254 (10%), Method: PREINCUBATION) was “inactive; negative”; the mutagenic call (Test System: AMES SALMONELLA TYPHIMURIUM, Strain/Indicator: TA97, Metabolic Activation: NONE, Method: PREINCUBATION) was “inactive; negative”; the mutagenic call (Test System: AMES SALMONELLA TYPHIMURIUM, Strain/Indicator: TA97, Metabolic Activation: RAT, LIVER, S-9, AROCLOR 1254 (10%), Method: PREINCUBATION) is “inactive; negative”; the mutagenic call (Test System: AMES SALMONELLA TYPHIMURIUM, Strain/Indicator: TA98, Metabolic Activation: HAMSTER, LIVER, S-9, AROCLOR 1254 (10%), Method: PREINCUBATION) was “active; positive”. The mutagenic call is, setting by setting: under setting [1], “inactive; negative”; (Test System: AMES SALMONELLA TYPHIMURIUM, Strain/Indicator: TA98, Metabolic Activation: RAT LIVER S-9, AROCLOR 1254 (10 OR 30%), Method: STANDARD PLATE) “active; positive”; (Test System: AMES SALMONELLA TYPHIMURIUM, Strain/Indicator: TA98, Metabolic Activation: RAT LIVER S-9, PHENOBARBITAL AND BETA-NAPHTHOFLAVONE, Method: PREINCUBATION) “inactive; negative”; (Test System: AMES SALMONELLA TYPHIMURIUM, Strain/Indicator: TA98, Metabolic Activation: RAT, LIVER, S-9, AROCLOR 1254 (10%), Method: PREINCUBATION) “active; positive”; (Test System: AMES SALMONELLA TYPHIMURIUM, Strain/Indicator: TA100, Metabolic Activation: HAMSTER, LIVER, S-9, AROCLOR 1254 (10%), Method: PREINCUBATION) “active; positive”; under setting [2], “inactive; negative”. In addition, the mutagenic call by setting is: (Test System: AMES SALMONELLA TYPHIMURIUM, Strain/Indicator: TA100, Metabolic Activation: RAT, LIVER, S-9, AROCLOR 1254 (10%), Method: PREINCUBATION) “active; positive”; (Test System: AMES SALMONELLA TYPHIMURIUM, Strain/Indicator: TA1535, Metabolic Activation: HAMSTER, LIVER, S-9, AROCLOR 1254 (10%), Method: PREINCUBATION) “inactive; negative”; under setting [3], “inactive; negative”; (Test System: AMES SALMONELLA TYPHIMURIUM, Strain/Indicator: TA1535, Metabolic Activation: RAT LIVER S-9, PHENOBARBITAL AND BETA-NAPHTHOFLAVONE, Method: PREINCUBATION) “inactive; negative”; (Test System: AMES SALMONELLA TYPHIMURIUM, Strain/Indicator: TA1535, Metabolic Activation: RAT, LIVER, S-9, AROCLOR 1254 (10%), Method: PREINCUBATION) “inactive; negative”; under setting [4], “inactive; negative”. The mutagenic call was “active; positive” (Test System: AMES SALMONELLA TYPHIMURIUM, Strain/Indicator: TA1537, Metabolic Activation: RAT LIVER S-9, AROCLOR 1254 (10 OR 30%), Method: STANDARD PLATE); “inactive; negative” (Test System: AMES SALMONELLA TYPHIMURIUM, Strain/Indicator: TA1537, Metabolic Activation: RAT LIVER S-9, PHENOBARBITAL AND BETA-NAPHTHOFLAVONE, Method: PREINCUBATION); “inactive; negative” (Test System: E.COLI, Strain/Indicator: WP2UVRA, Metabolic Activation: NONE, Method: PREINCUBATION); “inactive; negative” (Test System: E.COLI, Strain/Indicator: WP2UVRA, Metabolic Activation: RAT LIVER S-9, PHENOBARBITAL AND BETA-NAPHTHOFLAVONE, Method: PREINCUBATION); “active; positive” under setting [5]; “active; positive” (Test System: MOUSE LYMPHOMA, Strain/Indicator: L5178Y (TK+/TK-), Metabolic Activation: RAT, LIVER, S-9, AROCLOR 1254, Method: SUSPENSION/PLATE).

Regarding `Cc1[nH]c(=O)c(C#N)cc1-c1ccncc1`, the mutagenic call runs as follows: (Test System: AMES SALMONELLA TYPHIMURIUM, Strain/Indicator: TA97, Metabolic Activation: NONE) “inactive; negative”; (Test System: AMES SALMONELLA TYPHIMURIUM, Strain/Indicator: TA97, Metabolic Activation: S-9) “inactive; negative”; (Test System: AMES SALMONELLA TYPHIMURIUM, Strain/Indicator: TA98, Metabolic Activation: NONE) “inactive; negative”; under setting [1], “inactive; negative”; (Test System: AMES SALMONELLA TYPHIMURIUM, Strain/Indicator: TA98, Metabolic Activation: RAT, LIVER, S-9, PHENOBARBITAL AND 5,6-BENZOFLAVONE, Method: PREINCUBATION) “inactive; negative”; (Test System: AMES SALMONELLA TYPHIMURIUM, Strain/Indicator: TA98, Metabolic Activation: S-9) “inactive; negative”. Further, the mutagenic call is “inactive; negative” under setting [2]; “inactive; negative” (Test System: AMES SALMONELLA TYPHIMURIUM, Strain/Indicator: TA100, Metabolic Activation: RAT, LIVER, S-9, PHENOBARBITAL AND 5,6-BENZOFLAVONE, Method: PREINCUBATION); “inactive; negative” (Test System: AMES SALMONELLA TYPHIMURIUM, Strain/Indicator: TA100, Metabolic Activation: S-9); “inactive; negative” (Test System: AMES SALMONELLA TYPHIMURIUM, Strain/Indicator: TA102, Metabolic Activation: NONE); “inactive; negative” (Test System: AMES SALMONELLA TYPHIMURIUM, Strain/Indicator: TA102, Metabolic Activation: S-9); “inactive; negative” under setting [3]. Moreover, the mutagenic call reads like this: (Test System: AMES SALMONELLA TYPHIMURIUM, Strain/Indicator: TA1535, Metabolic Activation: RAT, LIVER, S-9, PHENOBARBITAL AND 5,6-BENZOFLAVONE, Method: PREINCUBATION) “inactive; negative”; under setting [4], “inactive; negative”; (Test System: AMES SALMONELLA TYPHIMURIUM, Strain/Indicator: TA1537, Metabolic Activation: RAT, LIVER, S-9, PHENOBARBITAL AND 5,6-BENZOFLAVONE, Method: PREINCUBATION) “inactive; negative”; (Test System: E. COLI, Strain/Indicator: WP2 UVRA, Metabolic Activation: NONE, Method: PREINCUBATION) “inactive; negative”; (Test System: E. COLI, Strain/Indicator: WP2 UVRA, Metabolic Activation: RAT, LIVER, S-9, PHENOBARBITAL AND 5,6-BENZOFLAVONE, Method: PREINCUBATION) “inactive; negative”; under setting [5], “inactive; negative”. Moreover, under “Test System: MOUSE LYMPHOMA, Strain/Indicator: L5178Y (TK+/TK-), Metabolic Activation: RAT, LIVER, S-9, PHENOBARBITAL AND 5,6-BENZOFLAVONE, Method: SUSPENSION/PLATE”, the mutagenic call is “inactive; negative”.
